Measured values as given in ChEMBL document CHEMBL1201862, “PubChem BioAssay data set” (2004).
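Results reflect a 48-hour exposure of cells in 96-well plates to compound at five concentrations. GI50 marks 50% less growth.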 Activity calls are given as the source filed them. No stated cut-off is given here; in the data, active = GI50 up to about 1.1 µM and inactive = higher.

How the values were obtained:
Experiment in all cases: DTP human tumour cell line panel, 48 h
NCI-H460 = test system: NCI-H460
DMS-114 = test system: DMS-114
HOP-18 = test system: HOP-18
SF-539 = test system: SF-539
NCI-H23 = test system: NCI-H23
HT-29 = test system: HT-29
HCT-15 = test system: HCT-15
RPMI-8226 = test system: RPMI-8226
XF498 = test system: XF498
MOLT-4 = test system: MOLT-4
RXF 393 = test system: RXF 393
LXFL 529 = test system: LXFL 529
786-0 = test system: 786-0
SK-MEL-2 = test system: SK-MEL-2
TK-10 = test system: TK-10
A549 = test system: A549
SF-268 = test system: SF-268
SNB-78 = test system: SNB-78
UO-31 = test system: UO-31
HOP-92 = test system: HOP-92
SN12C = test system: SN12C
SK-MEL-5 = test system: SK-MEL-5
COLO 205 = test system: COLO 205
SNB-19 = test system: SNB-19
HCC 2998 = test system: HCC 2998
UACC-62 = test system: UACC-62
SF-295 = test system: SF-295
NCI-H522 = test system: NCI-H522
OVCAR-3 = test system: OVCAR-3
LOX IMVI = test system: LOX IMVI
OVCAR-8 = test system: OVCAR-8
M19-MEL = test system: M19-MEL
OVCAR-5 = test system: OVCAR-5
ACHN = test system: ACHN
UACC-257 = test system: UACC-257
Malme-3M = test system: Malme-3M
SW-620 = test system: SW-620
EKVX = test system: EKVX
SK-OV-3 = test system: SK-OV-3
U-251 = test system: U-251
SNB-75 = test system: SNB-75
SK-MEL-28 = test system: SK-MEL-28
KM-20L2 = test system: KM-20L2
KM12 = test system: KM12
SR = test system: SR
NCI-H226 = test system: NCI-H226
RXF 631 = test system: RXF 631
IGROV-1 = test system: IGROV-1
M14 = test system: M14
DMS-273 = test system: DMS-273
DLD-1 = test system: DLD-1
HCT-116 = test system: HCT-116

Measured: GI50

COc1cc2c3c(c1OC)C1(C=CC(=O)C=C1)C[C@H]3N(C)CC2 [PRONUCIFERINE]
inactive: NCI-H460 > 100 µM | DMS-114 > 100 µM | HOP-18 > 100 µM | SF-539 > 100 µM | NCI-H23 > 100 µM | HT-29 > 100 µM | RPMI-8226 > 100 µM | XF498 > 100 µM | MOLT-4 > 100 µM | RXF 393 26 µM | LXFL 529 > 100 µM | 786-0 > 100 µM | SK-MEL-2 > 100 µM | TK-10 > 100 µM | A549 > 100 µM | SF-268 > 100 µM | SNB-78 > 100 µM | UO-31 > 100 µM | HOP-92 > 100 µM | SN12C > 100 µM | SK-MEL-5 > 100 µM | COLO 205 > 100 µM | SNB-19 > 100 µM | HCC 2998 > 100 µM | UACC-62 > 100 µM | SF-295 > 100 µM | NCI-H522 74.3 µM | OVCAR-3 > 100 µM | LOX IMVI > 100 µM | OVCAR-8 > 100 µM | M19-MEL > 100 µM | OVCAR-5 > 100 µM | ACHN > 100 µM | UACC-257 > 100 µM | Malme-3M > 100 µM | SW-620 > 100 µM | EKVX > 100 µM | SK-OV-3 > 100 µM | U-251 > 100 µM | SNB-75 > 100 µM | SK-MEL-28 > 100 µM | KM-20L2 > 100 µM | KM12 > 100 µM | SR > 100 µM | NCI-H226 > 100 µM | RXF 631 > 100 µM | IGROV-1 > 100 µM | M14 > 100 µM | DMS-273 > 100 µM | DLD-1 > 100 µM | HCT-116 > 100 µM
> 100 µM: HCT-15
